From ChEMBL document CHEMBL1143637, “Solid-phase binding assays of peptides using EGFP-Src SH2 domain fusion protein and biotinylated Src SH2 domain” (Bioorg Med Chem Lett, 2005)

biological target: Proto-oncogene tyrosine-protein kinase Src (Homo sapiens, UniProt P12931); assay: Inhibitory concentration against Src protein tyrosine kinase SH2 domain
Sequence (P12931 2-536 limits assumed): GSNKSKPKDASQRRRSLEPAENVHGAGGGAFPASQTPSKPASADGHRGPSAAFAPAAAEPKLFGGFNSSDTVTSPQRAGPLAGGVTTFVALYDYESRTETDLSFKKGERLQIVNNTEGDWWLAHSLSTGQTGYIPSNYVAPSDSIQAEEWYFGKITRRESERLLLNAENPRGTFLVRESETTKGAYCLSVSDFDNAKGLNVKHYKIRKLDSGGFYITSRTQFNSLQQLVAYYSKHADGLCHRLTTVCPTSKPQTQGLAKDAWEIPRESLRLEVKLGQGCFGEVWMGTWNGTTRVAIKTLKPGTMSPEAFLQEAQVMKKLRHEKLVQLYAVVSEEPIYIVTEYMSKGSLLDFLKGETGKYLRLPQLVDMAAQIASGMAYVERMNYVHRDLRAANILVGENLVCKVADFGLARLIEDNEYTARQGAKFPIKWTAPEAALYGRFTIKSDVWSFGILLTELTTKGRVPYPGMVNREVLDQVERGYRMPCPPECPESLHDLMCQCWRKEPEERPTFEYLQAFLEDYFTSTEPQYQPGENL

IC50 [µM]	Compound
> 100	CC[C@H](C)[C@H](N)C(=O)N[C@@H](CCC(=O)O)C(=O)N[C@@H](CCC(=O)O)C(=O)N[C@@H](Cc1ccc(O)cc1)C(=O)O
> 100	CC[C@H](C)[C@H](N)C(=O)N[C@@H](CCC(=O)O)C(=O)N[C@@H](CCC(=O)O)C(=O)N[C@@H](Cc1ccccc1)C(=O)O
> 100	CC[C@H](C)[C@H](N)C(=O)N[C@@H](CCC(=O)O)C(=O)N[C@@H](CCC(=O)O)C(=O)N[C@@H](Cc1ccc(OP(=O)(O)O)cc1)C(=O)O

The remaining lines, values behind:

Compound	IC50 [µM]
CC[C@H](C)[C@H](NC(=O)[C@H](CCC(=O)O)NC(=O)[C@H](CCC(=O)O)NC(=O)[C@@H](N)Cc1ccccc1)C(=O)O	> 100
CC[C@H](C)[C@H](NC(=O)[C@H](CCC(=O)O)NC(=O)[C@H](CCC(=O)O)NC(=O)[C@@H](N)Cc1ccc(O)cc1)C(=O)O	> 100
